Results as given in patent publication US12083082B2, “Methods for treating neurodegenerative disorders” (Alzheon, Inc., priority 2018, dated 2024).
Like-named read-outs stand apart in the source and are kept apart here.

Tests used:
[1] = Oral and iv pharmacokinetics of 3-SPA in male SD rats; type: in vivo, Sprague-Dawley rats
Method: The oral and iv pharmacokinetics of 3-SPA was evaluated in male Sprague-Dawley fasted rats at a dose of 30 mg/kg and 10 mg/kg respectively (n=3 per groups). Animals were housed in a standard facility, with water and food was provided ad libitum to the experiment. 3-SPA was dissolved in saline, was administered orally by gavage and intravenously as a bolus. Serial blood samples (approximately 1.0 mL each) were collected from each animal at 0.25, 0.5, 1, 2, 4, 8 and 24 hours after dosing into tubes containing K2EDTA and processed for plasma by centrifugation. Plasma samples were stored at −80° C. until bioanalyses.
A separate group of animals was dosed orally at 30 mg/kg and terminal brain, CSF and plasma samples were collected at 1, 2, 6, and 24 hr (3 animals for each time point) for bioanalyses of 3-SPA in brain and CSF, and to estimate brain penetration relative to plasma concentrations. The in-life study was performed at Agilux Laboratories (Worcester, MA) following quality standards in line with Good Laboratory Practice. Bioanalyses of rat plasma, CSF and brain was preformed using LC-MS/MS at Nextcea. Prior to processing rat brains for bioanalysis, the brains were perfused to remove pooled blood. Pharmacokinetic data analyses were conducted using Winnonlin Professional v5.0.1 (Pharsight, Mountain View, CA).
The plasma concentration of a single dose of 3-SPA, dissolved in saline as a clear solution, administered orally and intravenously to rats at a dose level of 30 mg/kg and 10 mg/kg, respectively, are shown in FIG. 9. Brain, CSF and corresponding plasma levels after a single oral dose of dose of 30 mg/kg of 3-SPA at 1, 2, 6, and 24 hr are shown in FIG. 10. Mean PK curves were used for calculation of pharmacokinetic parameters.

CYP = assay: Metabolism and CYP interactions of 3-SPA
Excerpt: ALZ-801 is a valine conjugate of tramiprosate that has been optimized for improved pharmacokinetic properties and gastrointestinal tolerability. Chronic toxicology studies required for the advancement of ALZ-801 to Phase 3 have been completed, including the nonclinical safety characterization of ALZ-801, and the safety bridge to the extensive nonclinical toxicology and safety data for tramiprosate. […] See Hey et al., Clinical Pharmacokinetics and Safety of ALZ-801, a Novel Prodrug of Tramiprosate in Development for the Treatment of Alzheimer's Disease. Clin Pharmacokinetics 2018; 315-333 and Kocis et al., Elucidating the Abeta42 Anti-Aggregation Mechanism of Action of Tramiprosate in Alzheimer's Disease: Integrating Molecular Analytical Methods. Pharmacokinetic and Clinical Data. CNS Drugs 2017; 31:495-509. […] Both ALZ-801 and tramiprosate have consistent elimination half-life in plasma across species following repeated oral doses of ALZ-801, indicating no potential for accumulation after chronic dosing. Following conversion of ALZ-801 to tramiprosate, tramiprosate is consistently metabolized in vivo into a single major metabolite, 3-sulfopropanoic acid (3-SPA), in humans, mice, rats, dogs and minipigs.

Molecule `O=C(O)CCS(=O)(=O)O` [3-SPA, 3-sulfopropanoic acid] has a Tmax ([1]; Sprague-Dawley, rat, iv 10 mg/kg, plasma, read-out: Tmax) of 4.8 min, a Cl_obs ([1]; iv 10 mg/kg) of 45 mL/min/kg and a Vss_obs ([1]; iv 10 mg/kg) of 12.9 L/kg. For the same molecule, the Vz_obs ([1]; iv 10 mg/kg) was 43.6 L/kg, the “AUC 0-inf_obs” value ([1]; iv 10 mg/kg, plasma) was 3638 ng·h/mL and the “AUC 0-t” value ([1]; iv 10 mg/kg, plasma) was 3407 ng·h/mL. It also gave a C0 ([1]; iv 10 mg/kg, plasma) of 13599 ng/mL, a Cmax ([1]; iv 10 mg/kg, plasma) of 7484 ng/mL and a t½ ([1]; iv 10 mg/kg, plasma) of 659.4 min. The “Oral Bioavailability” value ([1]; oral 30 mg/kg vs iv 10 mg/kg) was about 100%, the “AUC 0-inf_obs” value ([1]; oral 30 mg/kg, plasma) was 19061 ng·h/mL and the “AUC 0-t” value ([1]; oral 30 mg/kg, plasma) was 18894 ng·h/mL. The Cmax ([1]; oral 30 mg/kg, plasma) was 8943 ng/mL, the Lambda_z ([1]; oral 30 mg/kg, plasma) was 0.16 h⁻¹ and the Tmax ([1]; oral 30 mg/kg, plasma) was 30 min. The t½ ([1]; oral 30 mg/kg, plasma) was 264 min and the “Further metabolism or CYP interactions (in words)” value (CYP) was “No further metabolism or CYP interactions have been observed”.
